Target: T1, DGAT1 enzyme (Homo sapiens, UniProt O75907)
T1 construct: made in house
T1 sequence (O75907 1-488): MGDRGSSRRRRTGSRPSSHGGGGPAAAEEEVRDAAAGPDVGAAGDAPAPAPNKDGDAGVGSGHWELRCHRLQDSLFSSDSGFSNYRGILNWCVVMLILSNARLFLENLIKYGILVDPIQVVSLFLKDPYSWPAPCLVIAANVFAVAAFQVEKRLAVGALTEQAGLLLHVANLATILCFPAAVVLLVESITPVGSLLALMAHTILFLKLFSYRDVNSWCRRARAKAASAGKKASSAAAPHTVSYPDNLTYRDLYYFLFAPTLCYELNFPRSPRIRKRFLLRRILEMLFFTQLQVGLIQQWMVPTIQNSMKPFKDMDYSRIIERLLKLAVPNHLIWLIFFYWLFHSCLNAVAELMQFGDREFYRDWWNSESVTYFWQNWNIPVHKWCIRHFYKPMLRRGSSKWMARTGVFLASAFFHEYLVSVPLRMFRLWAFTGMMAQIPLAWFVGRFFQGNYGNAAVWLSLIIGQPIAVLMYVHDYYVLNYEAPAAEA
Assay: DGAT1 inhibitory activity test
Assay type: biochemical
Conditions: test compound concentration of 0.05 μg/ml; read-out: Inhibitory Rate
Protocol: DGAT1 enzyme was prepared and stored according to the method described in US2007/0249620.
(2) DGAT1 Inhibitory Activity Test
A reaction solution having the following composition was incubated at room temperature (23° C.) for 30 minutes: 175 mM Tris-HCl (pH 8.0), 8 mM MgCl2, 1 mg/ml BSA, 0.3 mM 1,2-dioleoyl-sn-glycerol (10-fold concentration of EtOH solution, 10% added), 10 μM [^14C]-oleoyl-CoA (approximately 50 mCi/mmol), 0.5% Triton X-100, the DGAT1 enzyme (10 μg) obtained in Test Example 1(1), and a test compound or vehicle (DMSO/MeOH, 7:3 solution, 5% added), […] in total. A reaction stop solution ([…] consisting of isopropanol/1-heptane/water (80:20:2, v/v/v) was added to the reaction solution and stirred. Subsequently, water (30 μl) and 1-heptane (100 μl) were added thereto and stirred. The 1-heptane layer (50 μl) was spotted onto a TLC plate and developed with a developing solvent consisting of 1-hexane/diethyl ether/acetic acid (85:15:1, v/v/v). The radioactivity of the triglyceride fraction was quantified using BAS2000 Bio Image Analyzer (FUJIFILM) and compared with the control. The inhibitory activity of the test compound was calculated according to the formula shown below. In this context, the radioactivity at no reaction (0 minute incubation) was used as background. Inhibitory Rate=100−[(Radioactivity of sample supplemented with test compound)−(Background)]/[(Radioactivity of control)−(Background)]×100

## O=C(O)C[C@@H]1CC[C@H](OC(=O)N2CCc3cc(NC(=O)Nc4ccccc4F)ccc3C2)C1 (relative stereo) [Example 6, cis-6-[3-(2-fluoro-phenyl)-ureido]-3,4-dihydro-1H-isoquinoline-2-carboxylic acid 3-carboxymethyl-cyclopentyl ester]
  inhibition at 0.05 µg/mL: ≥ 50%

## C[C@H]1C[C@@H](CC(=O)O)CC[C@H]1OC(=O)N1CCc2cc(NC(=O)Nc3ccccc3F)ccc2C1 (relative stereo) [Example 14, 6-[3-(2-fluoro-phenyl)-ureido]-3,4-dihydro-1H-isoquinoline-2-carboxylic acid c-4-carboxymethyl-c-2-methyl-r-1-cyclohexyl ester]
  inhibition at 0.05 µg/mL: ≥ 50%

## O=C(O)C[C@H]1CC[C@@H](OC(=O)N2CCc3cc(NC(=O)Nc4ccccc4F)ccc3C2)CC1 [Example 3, cis-6-[3-(2-fluoro-phenyl)-ureido]-3,4-dihydro-1H-isoquinoline-2-carboxylic acid 4-carboxymethyl-cyclohexyl ester]
  inhibition at 0.05 µg/mL: ≥ 50%

## O=C(Nc1ccc2c(c1)CCN(C(=O)O[C@H]1CC[C@@H](C(=O)O)CC1)C2)Nc1ccccc1F [Example 9, cis-6-[3-(2-fluoro-phenyl)-ureido]-3,4-dihydro-1H-isoquinoline-2-carboxylic acid 4-carboxy-cyclohexyl ester]
  inhibition at 0.05 µg/mL: ≥ 50%

## NC(=O)C[C@H]1CC[C@H](OC(=O)N2CCc3cc(NC(=O)Nc4ccccc4F)ccc3C2)CC1 [Example 18, trans-6-[3-(2-fluoro-phenyl)-ureido]-3,4-dihydro-1H-isoquinoline-2-carboxylic acid 4-carbamoylmethyl-cyclohexyl ester]
  inhibition at 0.05 µg/mL: ≥ 50%

## CC(C)(NC(=O)C[C@H]1CC[C@H](OC(=O)N2CCc3cc(NC(=O)Nc4ccccc4F)ccc3C2)CC1)C(=O)O [Example 19, trans-6-[3-(2-fluoro-phenyl)-ureido]-3,4-dihydro-1H-isoquinoline-2-carboxylic acid 4-[(1-carboxy-1-methyl-1-ethylcarbamoyl)-methyl]-cyclohexyl ester]
  inhibition at 0.05 µg/mL: ≥ 50%

## CN(C)C(=O)C[C@H]1CC[C@H](OC(=O)N2CCc3cc(NC(=O)Nc4ccccc4F)ccc3C2)CC1 [Example 33, trans-6-[3-(2-fluoro-phenyl)-ureido]-3,4-dihydro-1H-isoquinoline-2-carboxylic acid 4-dimethylcarbamoylmethyl-cyclohexyl ester]
  inhibition at 0.05 µg/mL: ≥ 50%

## CNC(=O)C[C@H]1CC[C@H](OC(=O)N2CCc3cc(NC(=O)Nc4ccccc4F)ccc3C2)CC1 [Example 34, trans-6-[3-(2-fluoro-phenyl)-ureido]-3,4-dihydro-1H-isoquinoline-2-carboxylic acid 4-methylcarbamoylmethyl-cyclohexyl ester]
  inhibition at 0.05 µg/mL: ≥ 50%

## O=C(O)CNC(=O)C[C@H]1CC[C@H](OC(=O)N2CCc3cc(NC(=O)Nc4ccccc4F)ccc3C2)CC1 [Example 35, trans-6-[3-(2-fluoro-phenyl)-ureido]-3,4-dihydro-1H-isoquinoline-2-carboxylic acid 4-[(carboxymethyl-carbamoyl)-methyl]-cyclohexyl ester]
  inhibition at 0.05 µg/mL: ≥ 50%

## CC(NC(=O)C[C@H]1CC[C@H](OC(=O)N2CCc3cc(NC(=O)Nc4ccccc4F)ccc3C2)CC1)C(=O)O (stereo partly drawn) [Example 36, trans-6-[3-(2-fluoro-phenyl)-ureido]-3,4-dihydro-1H-isoquinoline-2-carboxylic acid 4-[(1-carboxy-ethylcarbamoyl)-methyl]-cyclohexyl ester]
  inhibition at 0.05 µg/mL: ≥ 50%

## O=C(C[C@H]1CC[C@H](OC(=O)N2CCc3cc(NC(=O)Nc4ccccc4F)ccc3C2)CC1)NC1(C(=O)O)CC1 [Example 37, trans-6-[3-(2-fluoro-phenyl)-ureido]-3,4-dihydro-1H-isoquinoline-2-carboxylic acid 4-[(1-carboxy-cyclopropylcarbamoyl)-methyl]-cyclohexyl ester]
  inhibition at 0.05 µg/mL: ≥ 50%

## O=C(Nc1ccc2c(c1)CCN(C(=O)O[C@H]1CC[C@H](CC(=O)N3CCCC3C(=O)O)CC1)C2)Nc1ccccc1F (stereo partly drawn) [Example 38, trans-6-[3-(2-fluoro-phenyl)-ureido]-3,4-dihydro-1H-isoquinoline-2-carboxylic acid 4-[2-(2-carboxy-pyrrolidin-1-yl)-2-oxo-ethyl]-cyclohexyl ester]
  inhibition at 0.05 µg/mL: ≥ 50%

## O=C(Nc1ccc2c(c1)CCN(C(=O)O[C@H]1CC[C@H](Cc3nc(C(=O)O)co3)CC1)C2)Nc1ccccc1F [Example 39, trans-6-[3-(2-fluoro-phenyl)-ureido]-3,4-dihydro-1H-isoquinoline-2-carboxylic acid 4-(4-carboxy-oxazol-2-ylmethyl)-cyclohexyl ester]
  inhibition at 0.05 µg/mL: ≥ 50%

## O=C(C[C@H]1CC[C@H](OC(=O)N2CCc3cc(NC(=O)Nc4ccccc4F)ccc3C2)CC1)Nc1nnn[nH]1 [Example 40, trans-6-[3-(2-fluoro-phenyl)-ureido]-3,4-dihydro-1H-isoquinoline-2-carboxylic acid 4-[(1H-tetrazol-5-ylcarbamoyl)-methyl]-cyclohexyl ester]
  inhibition at 0.05 µg/mL: ≥ 50%

## O=C(Nc1ccc2c(c1)CCN(C(=O)O[C@H]1CC[C@H](Cc3cc(O)n[nH]3)CC1)C2)Nc1ccccc1F [Example 42, trans-6-[3-(2-fluoro-phenyl)-ureido]-3,4-dihydro-1H-isoquinoline-2-carboxylic acid 4-(5-hydroxy-2H-pyrazol-3-ylmethyl)-cyclohexyl ester]
  inhibition at 0.05 µg/mL: ≥ 50%

## C[S+]([O-])c1cccc(NC(=O)Nc2ccc3c(c2)CCN(C(=O)O[C@H]2CC[C@H](CC(=O)O)CC2)C3)c1 (stereo partly drawn) [Example 65, trans-6-[3-(3-methanesulfinyl-phenyl)-ureido]-3,4-dihydro-1H-isoquinoline-2-carboxylic acid 4-carboxymethyl-cyclohexyl ester]
  inhibition at 0.05 µg/mL: ≥ 50%

## COc1ccc(NC(=O)Nc2ccc3c(c2)CCN(C(=O)O[C@H]2CC[C@H](CC(=O)O)CC2)C3)cc1 [Example 79, trans-6-[3-(4-methoxy-phenyl)-ureido]-3,4-dihydro-1H-isoquinoline-2-carboxylic acid 4-carboxymethyl-cyclohexyl ester]
  inhibition at 0.05 µg/mL: ≥ 50%

## O=C(O)C[C@H]1CC[C@H](OC(=O)N2CCc3cc(NC(=O)Nc4cncc(Cl)c4)ccc3C2)CC1 [Example 93, trans-6-[3-(5-chloro-pyridin-3-yl)-ureido]-3,4-dihydro-1H-isoquinoline-2-carboxylic acid 4-carboxymethyl-cyclohexyl ester]
  inhibition at 0.05 µg/mL: ≥ 50%

## O=C(O)C[C@H]1CC[C@H](OC(=O)N2CCc3cc(NC(=O)Nc4cnccn4)ccc3C2)CC1 [Example 94, trans-6-(3-pyrazin-2-yl-ureido)-3,4-dihydro-1H-isoquinoline-2-carboxylic acid 4-carboxymethyl-cyclohexyl ester]
  inhibition at 0.05 µg/mL: ≥ 50%

## O=C(O)C[C@H]1CC[C@H](OC(=O)N2CCc3cc(Nc4nc5ccccc5s4)ccc3C2)CC1 [Example 98, trans-6-(benzothiazol-2-ylamino)-3,4-dihydro-1H-isoquinoline-2-carboxylic acid 4-carboxymethyl-cyclohexyl ester]
  inhibition at 0.05 µg/mL: ≥ 50%

## COc1cccc(NC(=O)Nc2ccc3c(c2)CCN(C(=O)C(C)C2CCC(CC(=O)O)CC2)C3)c1 (stereo not drawn) [Example 106, [4-(2-{6-[3-(3-methoxy-phenyl)-ureido]-3,4-dihydro-1H-isoquinolin-2-yl}-1-methyl-2-oxy-ethyl)-cyclohexyl]-acetic acid]
  inhibition at 0.05 µg/mL: ≥ 50%

From patent US8735425B2, “Tetrahydroisoquinoline derivative” (Daiichi Sankyo Company, Limited, priority 2008, dated 2014)
